Measured values taken from patent US20070128217A1 (priority 2003, published 2007).

Assays:
[1] = test system: control sera (pooled serum of ten healthy LUMC hospital workers; commercial negative donor pooled serum from the Dutch bloodbank); assay type: binding, human; set-up: Binding of Control serum LUMC to linear peptides / Binding of Control serum Blood-bank to linear peptides / Binding of Control serum LUMC to looped peptides / Binding of Control Serum Blood-Bank to Looped peptides / Binding of Control serum LUMC to linear peptides of the protein M of SARS-CoV Urbani / Binding of Control serum Blood-bank to linear peptides of the protein M of SARS-CoV Urbani / Binding of Control serum LUMC to looped peptides of the protein M of SARS-CoV Urbani / Binding of Control Serum Blood-Bank to Looped peptides of the protein M of SARS-CoV Urbani: unit not given here
[2] = test system: rabbit serum obtained by immunizing a rabbit with the SARS-CoV strain Frankfurt 1; assay type: binding; set-up: Binding of a rabbit serum to linear peptides / Binding of a rabbit serum to looped peptides / Rabbit serum linear peptides / Rabbit serum looped peptides / Binding of a rabbit serum to linear peptides of protein N of SARS-CoV Urbani (Rabbit serum linear peptides) / Binding of a rabbit serum to looped/cyclic peptides of protein N of SARS-CoV Urbani (Rabbit serum looped peptides): unit not given here
[3] = test system: antibodies in sera from SARS patients (sera 1a, 1b, 2, 6, 37, 62, London, SARS-yellow, SARS-green); assay type: binding, human; set-up: Binding of serum 6 to linear peptides of protein X1 of SARS-CoV Urbani / Binding of serum 37 to linear peptides of protein X1 of SARS-CoV Urbani / Binding of serum 6 to looped/cyclic peptide (PEPSCAN-ELISA) / Binding of serum 37 to looped/cyclic peptide (PEPSCAN-ELISA) / Binding of serum 37 to looped/cyclic peptides of protein X1 of SARS-CoV Urbani / Binding of serum 6 to linear peptides of protein X2 / Binding of serum 37 to linear peptides of protein X2 / Binding of serum 37 to looped/cyclic peptides of protein X2 of SARS-CoV Urbani / Binding of serum 6 to linear peptides of protein M of SARS-CoV Urbani / Binding of serum 37 to linear peptides of protein M of SARS-CoV Urbani / Binding of serum 6 to looped/cyclic peptides of protein M of SARS-CoV Urbani / Binding of serum 37 to looped/cyclic peptides of protein M of SARS-CoV Urbani / Binding of serum 6 to linear peptides of protein X3 of SARS-CoV Urbani / Binding of serum 37 to linear peptides of protein X3 of SARS-CoV Urbani / Binding of serum 37 to looped/cyclic peptides of protein X3 of SARS-CoV Urbani / Binding of serum 6 to linear peptides of protein X4 of SARS-CoV Urbani / Binding of serum 37 to linear peptides of protein X4 of SARS-CoV Urbani / Binding of serum 37 to looped/cyclic peptides of protein X4 of SARS-CoV Urbani / Binding of serum 6 to linear peptides of protein X5 of SARS-CoV Urbani / Binding of serum 37 to linear peptides of protein X5 of SARS-CoV Urbani / Binding of serum 37 to looped/cyclic peptides of protein X5 of SARS-CoV Urbani / Binding of serum 6 to linear peptides of protein N of SARS-CoV Urbani / Binding of serum 37 to linear peptides of protein N of SARS-CoV Urbani / Binding of serum 6 to linear peptide (PEPSCAN-ELISA) / Binding of serum 1a to looped/cyclic peptides of protein N of SARS-CoV Urbani / Binding of serum 1b to looped/cyclic peptides of protein N of SARS-CoV Urbani / Binding of serum 2 to looped/cyclic peptides of protein N of SARS-CoV Urbani / Binding of serum 6 to looped/cyclic peptides of protein N of SARS-CoV Urbani / Binding of serum 37 to looped/cyclic peptides of protein N of SARS-CoV Urbani / Binding of serum 62 to looped/cyclic peptides of protein N of SARS-CoV Urbani / Binding of serum London to looped/cyclic peptides of protein N of SARS-CoV Urbani / Binding of serum SARS-green to looped/cyclic peptides of protein N of SARS-CoV Urbani: unit not given here

Question: How did the “Binding of Control Serum Blood-Bank to Looped peptides” value [1] turn out when SCELYHYQECVRGTT was run?
Answer: The value was 0.6.

Question: And the “Binding of Control serum Blood-bank to linear peptides” value [1]?
Answer: Its value is 0.5.

Question: What about the “Binding of Control serum LUMC to linear peptides” value [1] of the same sequence?
Answer: The value was 0.3.

Question: What about the “Binding of Control serum LUMC to looped peptides” value [1] of the same sequence?
Answer: Its value is 0.8.

Question: What about the “Rabbit serum linear peptides” value [2] of the same sequence?
Answer: The value was 0.4.

Question: What about the “Rabbit serum looped peptides” value [2] of the same sequence?
Answer: Its value is 0.0.

Question: And the “Binding of serum 1a to linear peptides of protein X4 of SARS-CoV Urbani” value [3]?
Answer: Its value is 0.8.

Question: What about the “Binding of serum 1a to looped/cyclic peptides of protein X4 of SARS-CoV Urbani” value [3] of the same sequence?
Answer: The value was 0.5.

Question: And the “Binding of serum 1b to linear peptides of protein X4 of SARS-CoV Urbani” value [3]?
Answer: Its value is 0.6.

Question: And the “Binding of serum 1b to looped/cyclic peptides of protein X4 of SARS-CoV Urbani” value [3]?
Answer: The value was 0.4.

Question: What about the “Binding of serum 2 to linear peptides of protein X4 of SARS-CoV Urbani” value [3] of the same sequence?
Answer: The value was 0.4.

Question: And the “Binding of serum 2 to looped/cyclic peptides of protein X4 of SARS-CoV Urbani” value [3]?
Answer: The value was 0.5.

Question: What about the “Binding of serum 6 to linear peptides of protein X4 of SARS-CoV Urbani” value [3] of the same sequence?
Answer: Its value is 0.5.

Question: What about the “Binding of serum 6 to looped/cyclic peptides of protein X4 of SARS-CoV Urbani” value [3] of the same sequence?
Answer: The value was 0.5.

Question: And the “Binding of serum 37 to linear peptides of protein X4 of SARS-CoV Urbani” value [3]?
Answer: Its value is 0.7.

Question: And the “Binding of serum 37 to looped/cyclic peptides of protein X4 of SARS-CoV Urbani” value [3]?
Answer: The value was 0.6.

Question: What about the “Binding of serum 62 to linear peptides of protein X4 of SARS-CoV Urbani” value [3] of the same sequence?
Answer: The value was 0.6.

Question: And the “Binding of serum 62 to looped/cyclic peptides of protein X4 of SARS-CoV Urbani” value [3]?
Answer: Its value is 0.5.

Question: What about the “Binding of serum London to linear peptides of protein X4 of SARS-CoV Urbani” value [3] of the same sequence?
Answer: Its value is 0.8.

Question: And the “Binding of serum London to looped/cyclic peptides of protein X4 of SARS-CoV Urbani” value [3]?
Answer: Its value is 0.3.

Question: And the “Binding of serum SARS-green to linear peptides of protein X4 of SARS-CoV Urbani” value [3]?
Answer: The value was 0.5.

Question: What about the “Binding of serum SARS-green to looped/cyclic peptides of protein X4 of SARS-CoV Urbani” value [3] of the same sequence?
Answer: The value was 0.2.

Question: And the “Binding of serum SARS-yellow to linear peptides of protein X4 of SARS-CoV Urbani” value [3]?
Answer: Its value is 0.2.

Question: And the “Binding of serum SARS-yellow to looped/cyclic peptides of protein X4 of SARS-CoV Urbani” value [3]?
Answer: Its value is 0.2.

Question: What does the source list for SFRLFARTRSMWSFN?
Answer: Binding of Control Serum Blood-Bank to Looped peptides of the protein M of SARS-CoV Urbani [1]: 0.7; Binding of Control serum Blood-bank to linear peptides of the protein M of SARS-CoV Urbani [1]: 0.6; Binding of Control serum LUMC to linear peptides of the protein M of SARS-CoV Urbani [1]: 0.4; Binding of Control serum LUMC to looped peptides of the protein M of SARS-CoV Urbani [1]: 0.6; Rabbit serum linear peptides [2]: 0.8; Rabbit serum looped peptides [2]: 0.2; Binding of serum 1a to linear peptides of protein M of SARS-CoV Urbani [3]: 0.8; Binding of serum 1a to looped/cyclic peptides of protein M of SARS-CoV Urbani [3]: 0.6; Binding of serum 1b to linear peptides of protein M of SARS-CoV Urbani [3]: 0.7; Binding of serum 1b to looped/cyclic peptides of protein M of SARS-CoV Urbani [3]: 0.5; Binding of serum 2 to linear peptides of protein M of SARS-CoV Urbani [3]: 0.5; Binding of serum 2 to looped/cyclic peptides of protein M of SARS-CoV Urbani [3]: 0.5; Binding of serum 6 to linear peptides of protein M of SARS-CoV Urbani [3]: 0.2; Binding of serum 6 to looped/cyclic peptides of protein M of SARS-CoV Urbani [3]: 0.8; Binding of serum 37 to linear peptides of protein M of SARS-CoV Urbani [3]: 0.8; Binding of serum 37 to looped/cyclic peptides of protein M of SARS-CoV Urbani [3]: 0.6; Binding of serum 62 to linear peptides of protein M of SARS-CoV Urbani [3]: 0.7; Binding of serum 62 to looped/cyclic peptides of protein M of SARS-CoV Urbani [3]: 0.6; Binding of serum London to linear peptides of protein M of SARS-CoV Urbani [3]: 0.3; Binding of serum London to looped/cyclic peptides of protein M of SARS-CoV Urbani [3]: 0.2; Binding of serum SARS-green to linear peptides of protein M of SARS-CoV Urbani [3]: 0.4; Binding of serum SARS-green to looped/cyclic peptides of protein M of SARS-CoV Urbani [3]: 0.3; Binding of serum SARS-yellow to linear peptides of protein M of SARS-CoV Urbani [3]: 0.1; Binding of serum SARS-yellow to looped/cyclic peptides of protein M of SARS-CoV Urbani [3]: 0.5
